What was measured:
lipase AY 30 [1] = assay: Effect of the solvent on lipase AY 30 catalyzed deacylation of SOP; type: biochemical, Candida cylindracea; on SheptaP's ([…]): HPLC peak 8.2 min
Experimental: (§1) Identical SOP deacylations were performed with lipase AY 30 or protease type XXIII in numerous anhydrous organic solvents, as shown in Tables 12 and 13.
(§2) Solvent screening for SOP deacylation. A scintillation vial was charged successively with 100 mg of lipase AY 30 or protease type XXIII as described and 1.0 ml of 20 mM sucrose octapropionate (SOP) and 200mM butanol dissolved in an organic solvent. Following a 5 sec sonication, the vial was incubated in a controlled-temperature shaker at 45° C. and 300 RPM for 24 hrs. A 200 μl aliquot of the reaction mixture was withdrawn and centrifuged. The supernatant was collected and evaporated under a stream of N2. The residue was reconstituted in 200 μl of acetonitrile and 10 μl of this solution was analyzed by HPLC.

protease type XXIII = assay: Effect of the solvent on protease type XXIII catalyzed deacylation of SOP; type: biochemical, Aspergillus oryzae; conditions: 24 hrs
Experimental: as §1, §2

lipase AY 30 [2] = assay: Effect of the solvent on lipase AY 30 SOA deacetylation; type: biochemical, Candida cylindracea; conditions: lipase AY 30, solvent as labelled, 24 hrs
Experimental: Identical enzyme catalyzed SOA deacetylations were run in numerous anhydrous solvents. After 24 hrs incubation an aliquot was analyzed by HPLC.
as §2, with “Enzyme and Solvent” for “Solvent”, “Screening” for “screening”, “SOA Deacetylation.” for “SOP deacylation.”, “powdered enzyme as received” for “lipase AY 30”, “prepared” for “protease type XXIII”, “octaacetate (SOA)” for “octapropionate (SOP) and 200mM butanol”

proleather = assay: Nucleophile screening for proleather catalyzed deacetylation of SOA in diisopropyl ether; type: biochemical, Bacillus subtilis; conditions: for % conv: 66 hrs
Experimental: (§3) Nucleophile screening for alcalase, proleather or lipase AP 12 catalyzed deacetylation of SOA. A scintillation vial was charged successively with 100 mg of powdered enzyme prepared as described, 1.0 ml of 20 mM sucrose octaacetate (SOA) and 200 mM of the nucleophile dissolved in diisopropyl ether. Following a 5 sec sonication, the vial was incubated in a controlled-temperature shaker at 45° C. and 300 RPM for 66 hrs. A 200 μl aliquot of the reaction mixture was withdrawn and centrifuged. The supernatant was collected and evaporated under a stream of N2. The residue was reconstituted in 200 μl of acetonitrile and 10 μl of this solution was analyzed by HPLC. For screening concentration effects on enzyme activity, the same protocol was followed except the nucleophile concentration was varied from 0 to 2000 mM.

alcalase = molecular target: T1, alcalase (Bacillus licheniformis, UniProt P00780); assay: Nucleophile screening for alcalase catalyzed deacetylation of SOA in diisopropyl ether; type: biochemical
T1 construct: purchased Novo Nordisk (gift)
T1 sequence (P00780 106-379): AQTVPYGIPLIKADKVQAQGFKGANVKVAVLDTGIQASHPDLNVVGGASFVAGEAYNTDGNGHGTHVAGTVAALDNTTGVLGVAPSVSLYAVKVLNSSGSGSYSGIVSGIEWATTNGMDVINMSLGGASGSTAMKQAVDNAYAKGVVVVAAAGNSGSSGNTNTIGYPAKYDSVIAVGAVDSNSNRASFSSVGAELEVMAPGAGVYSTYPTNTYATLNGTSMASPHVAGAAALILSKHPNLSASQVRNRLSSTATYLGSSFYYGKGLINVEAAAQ
Experimental: as §3

lipase AP 12 = assay: Nucleophile screening for lipase AP 12 catalyzed deacetylation of SOA in diisopropyl ether; type: biochemical, Aspergillus niger; conditions: for % conv: 66 hrs
Experimental: as §3

[3] = methanol 20 mM, peak height ratio
[4] = methanol 50 mM, peak height ratio
[5] = methanol 100 mM, peak height ratio
[6] = methanol 200 mM (Table 10), peak height ratio
[7] = methanol 500 mM, peak height ratio
[8] = methanol 1000 mM, peak height ratio
[9] = methanol 2000 mM, peak height ratio
[10] = nucleophile 200 mM, peak height ratio 1'-OH / 6'-OH heptaacetate
[11] = lipase AP 12, nucleophile 200 mM

`CC(C)=O` [acetone] was tested, and the “ShexaP (4.2 min)” value (lipase AY 30 [1]; lipase AY 30, 24 hrs, HPLC peak 4.2 min) was 0%, the “SheptaP's (8.9 min)” value (lipase AY 30 [1]; lipase AY 30, 24 hrs, HPLC peak 8.9 min) was 0% and the “SheptaP's (9.4 min)” value (lipase AY 30 [1]; lipase AY 30, 24 hrs, HPLC peak 9.4 min) was 0.1%. For the same compound, the “SheptaP's ([…])” value (lipase AY 30 [1]; lipase AY 30, 24 hrs, HPLC peak […]) was 1.2%, the SOA (lipase AY 30 [1]; lipase AY 30, solvent as labelled, 200 mM butanol, 24 hrs, peak 21.4 min) was 98.7% and the “SheptaP's (8.3 min)” value (protease type XXIII; HPLC peak 8.3 min) was 0.7%. The “SheptaP's (8.9 min)” value (protease type XXIII; HPLC peak 8.9 min) was 0%, the “SheptaP's (9.9 min)” value (protease type XXIII; HPLC peak 9.9 min) was 0.2% and the SOP (protease type XXIII; solvent as labelled) was 99.1%. For the same compound, the SOA (lipase AY 30 [2]) was 98.6%, the SheptaA (lipase AY 30 [2]) was 1.4% and the ShexaA (lipase AY 30 [2]) was 0%.

With `CO` [methanol] the increase in conversion (proleather; 1.0M methanol) was 120%, the “% conv” value (proleather; methanol 20 mM) was 38.1% and the regiochem (proleather; [3]) was 4.8. For the same compound, the “% conv” value (proleather; methanol 50 mM) was 41.2%, the regiochem (proleather; [4]) was 5.9 and the “% conv” value (proleather; methanol 100 mM) was 44.6%. For the same compound, the regiochem (proleather; [5]) was 6.6, the “% conv” value (proleather; methanol 200 mM (Table 10)) was 49.4% and the regiochem (proleather; [6]) was 7.9. The “% conv” value (proleather; methanol 500 mM) was 65.4%, the regiochem (proleather; [7]) was 12.4 and the “% conv” value (proleather; methanol 1000 mM) was 71.1%. The regiochem (proleather; [8]) was 12.6, the “% conv” value (proleather; methanol 2000 mM) was 66.8% and the regiochem (proleather; [9]) was 11.5. For the same compound, the “% conv” value (proleather; nucleophile 200 mM) was 53.8%, the regiochem (proleather; [10]) was 8.4 and the “increase in conversion relative to reaction with no added nucleophile” value (alcalase; 200 mM) was “at least 25%”. The “enhancement in overall conversion” value (alcalase; 0.5M methanol, in words) was “modest enhancements in overall conversion”, the regiochem (alcalase; [3]) was 7.4 and the regiochem (alcalase; [4]) was 8.3. For the same compound, the regiochem (alcalase; [5]) was 8.1, the regiochem (alcalase; [6]) was 8.6 and the regiochem (alcalase; [7]) was 8.2. The regiochem (alcalase; [8]) was 5.6, the regiochem (alcalase; [9]) was 7.1 and the regiochem (alcalase; [10]) was 8.6. The “enhancement in overall conversion” value (lipase AP 12; lipase AP 12, 1.0M methanol, in words) was “modest enhancements in overall conversion”, the “% conv” value (lipase AP 12; lipase AP 12, methanol 20 mM) was 22.4% and the “% conv” value (lipase AP 12; lipase AP 12, methanol 50 mM) was 23.5%. For the same compound, the “% conv” value (lipase AP 12; lipase AP 12, methanol 100 mM) was 25.7%, the “% conv” value (lipase AP 12; lipase AP 12, methanol 200 mM (Table 10)) was 24.0% and the “% conv” value (lipase AP 12; lipase AP 12, methanol 500 mM) was 31.3%. The “% conv” value (lipase AP 12; lipase AP 12, methanol 1000 mM) was 33.4%, the “% conv” value (lipase AP 12; lipase AP 12, methanol 2000 mM) was 21.3% and the “% conv” value (lipase AP 12; [11]) was 28.2%.

For `CCCCO` [butanol, n-butanol], the “% conv” value (proleather; nucleophile 200 mM) was 44.4%, the regiochem (proleather; [10]) was 4.8 and the regiochem (alcalase; [10]) was 7.4. The “% conv” value (lipase AP 12; [11]) was 25.7%.

For `OCCc1ccccc1` [phenethyl alcohol], the “% conv” value (proleather; nucleophile 200 mM) was 51.5%, the regiochem (proleather; [10]) was 5.3 and the regiochem (alcalase; [10]) was 7.3. The “% conv” value (lipase AP 12; [11]) was 25.7%.

`OCc1ccccc1` [benzyl alcohol] was tested, and the “% conv” value (proleather; nucleophile 200 mM) was 46.8%, the regiochem (proleather; [10]) was 6.6 and the regiochem (alcalase; [10]) was 8.1. For the same compound, the “% conv” value (lipase AP 12; [11]) was 22.5%.

`CCO` [ethanol] was tested, and the “% conv” value (proleather; nucleophile 200 mM) was 47.7%, the regiochem (proleather; [10]) was 5.6 and the regiochem (alcalase; [10]) was 7.5. The “% conv” value (lipase AP 12; [11]) was 26.7%.
